From ChEMBL document CHEMBL5537164, “Discovery of Potent, Orally Bioavailable, Tricyclic NLRP3 Inhibitors” (J Med Chem, 2024)

Experiments:
[1] = Volume of distribution at steady state in C57BL/6 mouse at 3 mg/kg, po or 1 mg/kg, iv measured after 24 hrs by LC-MS/MS analysis; format: ADME, organism-based; conditions: in vivo
[2] = Half-life in C57BL/6 mouse at 3 mg/kg, po or 1 mg/kg, iv measured after 24 hrs by LC-MS/MS analysis; format: ADME, organism-based; conditions: in vivo
[3] = Oral bioavailability in C57BL/6 mouse at 3 mg/kg measured after 24 hrs by LC-MS/MS analysis; format: ADME, organism-based; conditions: in vivo
[4] = Volume of distribution at steady state in Sprague-Dawley rat at 10 mg/kg, po or 1 mg/kg, iv measured after 24 hrs by LC-MS/MS analysis; format: ADME, organism-based; conditions: in vivo
[5] = Half-life in Sprague-Dawley rat at 10 mg/kg, po or 1 mg/kg, iv measured after 24 hrs by LC-MS/MS analysis; format: ADME, organism-based; conditions: in vivo
[6] = Dose normalized AUC in Sprague-Dawley rat at 10 mg/kg, po measured after 24 hrs by LC-MS/MS analysis; format: ADME, organism-based; conditions: in vivo
[7] = Oral bioavailability in Sprague-Dawley rat at 10 mg/kg measured after 24 hrs by LC-MS/MS analysis; format: ADME, organism-based; conditions: in vivo
[8] = Volume of distribution at steady state in Beagle dog at 1 mg/kg, po or 0.1 mg/kg, iv measured after 24 hrs by LC-MS/MS analysis; format: ADME, organism-based, Canis lupus familiaris; conditions: in vivo
[9] = Half-life in Beagle dog at 1 mg/kg, po or 0.1 mg/kg, iv measured after 24 hrs by LC-MS/MS analysis; format: ADME, organism-based, Canis lupus familiaris; conditions: in vivo
[10] = Dose normalized AUC in Beagle dog at 1 mg/kg, po measured after 24 hrs by LC-MS/MS analysis; format: ADME, organism-based, Canis lupus familiaris; conditions: in vivo
[11] = Oral bioavailability in Beagle dog at 1 mg/kg measured after 24 hrs by LC-MS/MS analysis; format: ADME, organism-based, Canis lupus familiaris; conditions: in vivo
[12] = Equilibrium solubility of compound in DMSO at pH 6.8 by shake flask method; format: physicochemical
[13] = Lipophilicity, logD of compound at pH 7.4; format: physicochemical; conditions: buffer
[14] = Metabolic stability in human liver microsomes assessed as intrinsic clearance; format: ADME, Microsome; conditions: read-out: CLH
[15] = Metabolic stability in mouse liver microsomes assessed as intrinsic clearance; format: ADME, Microsome; conditions: read-out: CLH
[16] = Clearance in C57BL/6 mouse at 1 mg/kg, iv measured after 24 hrs by LC-MS/MS analysis; format: ADME, organism-based; conditions: in vivo
[17] = Oral bioavailability in C57BL/6 mouse measured after 24 hrs by LC-MS/MS analysis; format: ADME, organism-based; conditions: in vivo
[18] = AUC (0 to infinity) in C57BL/6 mouse at 3 mg/kg, po measured after 24 hrs by LC-MS/MS analysis; format: ADME, organism-based; conditions: in vivo
[19] = biological target: Nuclear factor NF-kappa-B complex (Homo sapiens, UniProt P19838+Q00653+Q04206); assay: Inhibition of NF-kappaB in PMA-differentiated human THP-1 cells assessed as reduction in TNF-alpha release preincubated with compound for 1 hrs followed by Pam3CSK4 stimulation and measured after 3 hrs by HTRF assay; format: cell-based
Sequence of Nuclear factor NF-kappa-B complex (P19838 1-433 limits assumed): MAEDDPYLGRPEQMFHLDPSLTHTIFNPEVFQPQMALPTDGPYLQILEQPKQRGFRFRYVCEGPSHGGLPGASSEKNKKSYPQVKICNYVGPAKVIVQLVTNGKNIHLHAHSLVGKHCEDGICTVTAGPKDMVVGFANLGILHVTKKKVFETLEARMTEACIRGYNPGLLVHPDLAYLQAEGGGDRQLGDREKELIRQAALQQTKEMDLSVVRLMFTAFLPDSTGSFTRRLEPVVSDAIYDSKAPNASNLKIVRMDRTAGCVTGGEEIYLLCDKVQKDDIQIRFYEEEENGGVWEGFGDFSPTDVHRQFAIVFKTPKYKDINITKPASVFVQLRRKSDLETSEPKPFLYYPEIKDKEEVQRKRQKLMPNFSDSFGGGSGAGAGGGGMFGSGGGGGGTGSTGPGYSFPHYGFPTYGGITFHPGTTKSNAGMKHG
Sequence of Nuclear factor NF-kappa-B complex (Q00653 1-454 limits assumed): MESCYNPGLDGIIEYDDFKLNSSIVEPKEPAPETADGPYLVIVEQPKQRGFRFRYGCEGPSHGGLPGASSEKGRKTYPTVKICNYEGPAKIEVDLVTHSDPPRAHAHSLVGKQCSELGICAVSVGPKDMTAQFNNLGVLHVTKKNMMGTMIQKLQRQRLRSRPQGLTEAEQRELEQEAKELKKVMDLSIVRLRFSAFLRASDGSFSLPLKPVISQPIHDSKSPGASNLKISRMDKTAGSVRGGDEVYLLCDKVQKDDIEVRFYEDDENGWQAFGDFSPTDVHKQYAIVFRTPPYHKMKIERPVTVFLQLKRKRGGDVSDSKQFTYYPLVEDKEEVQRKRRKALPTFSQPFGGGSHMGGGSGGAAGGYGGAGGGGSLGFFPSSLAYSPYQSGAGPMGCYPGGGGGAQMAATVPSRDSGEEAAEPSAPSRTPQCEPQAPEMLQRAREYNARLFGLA
Sequence of Nuclear factor NF-kappa-B complex (Q04206 whole entry): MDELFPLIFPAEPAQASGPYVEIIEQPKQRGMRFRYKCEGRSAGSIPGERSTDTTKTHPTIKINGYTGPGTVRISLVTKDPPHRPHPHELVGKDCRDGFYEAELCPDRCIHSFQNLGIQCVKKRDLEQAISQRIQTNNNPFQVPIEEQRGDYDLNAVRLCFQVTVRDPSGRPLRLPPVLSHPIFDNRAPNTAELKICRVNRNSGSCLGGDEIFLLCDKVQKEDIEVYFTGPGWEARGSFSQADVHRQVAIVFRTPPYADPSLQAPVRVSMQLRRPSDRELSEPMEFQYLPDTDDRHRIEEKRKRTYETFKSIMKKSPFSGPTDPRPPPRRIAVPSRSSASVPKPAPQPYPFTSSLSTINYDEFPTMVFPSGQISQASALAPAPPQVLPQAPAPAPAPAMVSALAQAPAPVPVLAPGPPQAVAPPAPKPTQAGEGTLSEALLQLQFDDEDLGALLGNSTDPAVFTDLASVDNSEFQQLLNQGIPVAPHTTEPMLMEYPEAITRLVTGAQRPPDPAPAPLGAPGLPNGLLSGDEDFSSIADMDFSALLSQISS

[20] = In vivo inhibition of NLRP3 in LPS/ATP-induced C57BL/6 mouse model of acute peritonitis assessed as reduction in IL-1beta level at 100 mg/kg, po preadministered with compound for 1 hrs followed by LPS stimulation for 2 hrs and measured 15 mins after ATP addition by ELISA relative to control; format: functional; conditions: time 3.25 hrs
[21] = In vivo inhibition of NLRP3 in LPS/ATP-induced C57BL/6 mouse model of acute peritonitis assessed as reduction in IL-1beta level at 10 mg/kg, po preadministered with compound for 1 hrs followed by LPS stimulation for 2 hrs and measured 15 mins after ATP addition by ELISA relative to control; format: functional; conditions: time 3.25 hrs
[22] = Drug concentration in blood of C57BL/6 mouse model of acute peritonitis at 100 mg/kg, po preadministered with compound for 1 hrs followed by LPS stimulation for 2 hrs and measured 15 mins after ATP addition by HPLC-MS/MS analysis; format: ADME, organism-based; conditions: whole blood, read-out: Ct
[23] = Drug concentration in blood of C57BL/6 mouse model of acute peritonitis at 30 mg/kg, po preadministered with compound for 1 hrs followed by LPS stimulation for 2 hrs and measured 15 mins after ATP addition by HPLC-MS/MS analysis; format: ADME, organism-based; conditions: whole blood, read-out: Ct
[24] = Drug concentration in blood of C57BL/6 mouse model of acute peritonitis at 10 mg/kg, po preadministered with compound for 1 hrs followed by LPS stimulation for 2 hrs and measured 15 mins after ATP addition by HPLC-MS/MS analysis; format: ADME, organism-based; conditions: whole blood, read-out: Ct
[25] = Drug concentration in blood of C57BL/6 mouse model of acute peritonitis at 3 mg/kg, po preadministered with compound for 1 hrs followed by LPS stimulation for 2 hrs and measured 15 mins after ATP addition by HPLC-MS/MS analysis; format: ADME, organism-based; conditions: whole blood, read-out: Ct
[26] = In vivo inhibition of NLRP3 in LPS/ATP-induced C57BL/6 mouse model of acute peritonitis assessed as reduction in IL-1beta level at 50 mg/kg, po preadministered with compound for 1 hrs followed by LPS stimulation for 2 hrs and measured 15 mins after ATP addition by ELISA relative to control; format: functional; conditions: time 3.25 hrs
[27] = Drug concentration in brain of C57BL/6 mouse model of acute peritonitis at 50 mg/kg, po preadministered with compound for 1 hrs followed by LPS stimulation for 2 hrs and measured 15 mins after ATP addition by HPLC-MS/MS analysis; format: ADME, organism-based; conditions: read-out: Ct
Cytochrome P450 3A4 = Cytochrome P450 3A4 (Homo sapiens, UniProt P08684); assay: Inhibition of CYP3A4 (unknown origin); format: ADME
Sequence of Cytochrome P450 3A4 (P08684 whole entry): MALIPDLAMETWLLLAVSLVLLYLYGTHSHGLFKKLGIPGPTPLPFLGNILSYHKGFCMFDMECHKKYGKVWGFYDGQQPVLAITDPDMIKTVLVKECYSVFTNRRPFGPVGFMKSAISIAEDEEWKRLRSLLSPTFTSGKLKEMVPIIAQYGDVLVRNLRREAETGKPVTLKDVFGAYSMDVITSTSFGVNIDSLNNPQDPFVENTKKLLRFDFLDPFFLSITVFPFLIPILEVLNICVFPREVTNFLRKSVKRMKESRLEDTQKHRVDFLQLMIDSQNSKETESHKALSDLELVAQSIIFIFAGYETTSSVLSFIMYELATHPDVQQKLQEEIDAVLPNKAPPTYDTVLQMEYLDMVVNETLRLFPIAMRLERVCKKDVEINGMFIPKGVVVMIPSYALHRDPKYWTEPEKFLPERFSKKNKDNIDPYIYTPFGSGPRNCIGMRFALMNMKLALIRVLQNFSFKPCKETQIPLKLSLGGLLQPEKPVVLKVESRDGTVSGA

Cytochrome P450 2D6 = Cytochrome P450 2D6 (Homo sapiens, UniProt P10635); assay: Inhibition of CYP2D6 (unknown origin); format: ADME
Sequence of Cytochrome P450 2D6 (P10635 whole entry): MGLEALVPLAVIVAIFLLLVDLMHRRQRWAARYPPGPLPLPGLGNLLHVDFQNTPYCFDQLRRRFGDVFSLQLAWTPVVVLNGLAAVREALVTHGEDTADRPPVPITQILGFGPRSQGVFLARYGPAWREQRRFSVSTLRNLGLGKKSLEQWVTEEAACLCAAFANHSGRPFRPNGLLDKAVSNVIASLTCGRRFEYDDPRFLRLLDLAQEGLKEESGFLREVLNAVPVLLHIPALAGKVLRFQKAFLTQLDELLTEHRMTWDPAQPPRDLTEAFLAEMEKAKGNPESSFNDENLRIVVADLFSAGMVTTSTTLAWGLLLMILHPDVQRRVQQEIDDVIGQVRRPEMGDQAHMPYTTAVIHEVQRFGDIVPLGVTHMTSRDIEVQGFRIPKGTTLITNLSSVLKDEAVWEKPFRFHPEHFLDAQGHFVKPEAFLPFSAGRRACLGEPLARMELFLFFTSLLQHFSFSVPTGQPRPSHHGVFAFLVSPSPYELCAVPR

[28] = biological target: Synaptic vesicular amine transporter (Homo sapiens, UniProt Q05940); assay: Inhibition of VMAT-2 (unknown origin)
Sequence of Synaptic vesicular amine transporter (Q05940 whole entry): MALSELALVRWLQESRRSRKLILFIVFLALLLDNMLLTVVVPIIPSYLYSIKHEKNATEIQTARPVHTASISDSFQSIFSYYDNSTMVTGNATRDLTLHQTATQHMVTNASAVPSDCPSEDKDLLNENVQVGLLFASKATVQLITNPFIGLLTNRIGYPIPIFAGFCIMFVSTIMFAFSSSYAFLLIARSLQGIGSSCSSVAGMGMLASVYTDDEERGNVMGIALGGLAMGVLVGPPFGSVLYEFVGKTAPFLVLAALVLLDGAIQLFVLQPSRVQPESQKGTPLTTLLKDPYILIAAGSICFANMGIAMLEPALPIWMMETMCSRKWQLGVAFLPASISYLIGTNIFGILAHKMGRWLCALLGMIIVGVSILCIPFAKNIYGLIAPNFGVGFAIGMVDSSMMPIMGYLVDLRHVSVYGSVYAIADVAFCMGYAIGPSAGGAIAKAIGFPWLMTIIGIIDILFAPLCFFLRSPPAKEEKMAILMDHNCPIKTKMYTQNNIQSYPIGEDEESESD

[29] = Drug metabolism in rat liver microsomes assessed as N-demethylation of piperidine ring mediated metabolite formation; format: ADME, Microsome
[30] = Drug metabolism in dog liver microsomes assessed as N-demethylation of piperidine ring mediated metabolite formation; format: ADME, Canis lupus familiaris, Microsome
[31] = Drug metabolism in human liver microsomes assessed as N-demethylation of piperidine ring mediated metabolite formation; format: ADME, Microsome
[32] = Drug metabolism in rat liver microsome assessed as thiophene oxidation mediated metabolite formation; format: ADME; conditions: microsomes
[33] = Drug metabolism in dog liver microsome assessed as thiophene oxidation mediated metabolite formation; format: ADME, Canis lupus familiaris; conditions: microsomes
[34] = Drug metabolism in human liver microsome assessed as thiophene oxidation mediated metabolite formation; format: ADME; conditions: microsomes
[35] = Clearance in mouse liver microsomes; format: ADME, Microsome; conditions: read-out: CLH
[36] = Clearance in rat liver microsomes; format: ADME, Microsome; conditions: read-out: CLH
[37] = Clearance in dog liver microsomes; format: ADME, Canis lupus familiaris, Microsome; conditions: read-out: CLH
[38] = Clearance in human liver microsomes; format: ADME, Microsome; conditions: read-out: CLH
[39] = Protein binding in mouse plasma; format: ADME, cell-free; conditions: read-out: PPB (converted)
[40] = Protein binding in rat plasma; format: ADME, cell-free; conditions: read-out: PPB (converted)
[41] = Protein binding in dog plasma; format: ADME, cell-free, Canis lupus familiaris; conditions: read-out: PPB (converted)
[42] = Protein binding in human plasma; format: ADME, cell-free; conditions: read-out: PPB (converted)
[43] = Clearance in Sprague-Dawley rat assessed as hepatic blood flow at 10 mg/kg, po or 1 mg/kg, iv measured after 24 hrs by LC-MS/MS analysis; format: ADME, organism-based, Liver; conditions: in vivo

Question: What does the source list for `CN1CCC[C@@H](NC(=O)Cn2nc(C(C)(C)O)n3c(cc4sc(Cl)cc43)c2=O)C1`?
Answer: Vdss [1]: 3.9 L/kg; half-life [2]: 1 h; bioavailability [3]: 36%; Vdss [4]: 5.5 L/kg; half-life [5]: 3.5 h; AUC/dose [6]: 712 nmol·h/L; bioavailability [7]: 63%; Vdss [8]: 4.1 L/kg; half-life [9]: 5.7 h; AUC/dose [10]: 2530 nmol·h/L; bioavailability [11]: 89%; solubility [12]: > 1000 µM; logD [13]: 2.3; microsomal CLint [14]: 38 µL/min/mg; microsomal CLint [15]: 103 µL/min/mg; clearance [16]: 58 mL/min/kg; bioavailability [17]: 36%; AUC(0-inf) [18]: 0.718 µM·h; IC50 [19]: > 100 µM; inhibition in vivo at 100 mg/kg [20]: 98%; inhibition in vivo at 10 mg/kg [21]: 45%; concentration at 3.25 h [22]: 3670 nM; concentration at 3.25 h [23]: 1060 nM; concentration at 3.25 h [24]: 163 nM; concentration at 3.25 h [25]: 70 nM; inhibition in vivo at 50 mg/kg [26]: 90%; concentration at 3.25 h [27]: 398 nM; IC50 (Cytochrome P450 3A4): > 25 µM; IC50 (Cytochrome P450 2D6): > 25 µM; IC50 [28]: 6.5 µM; Drug metabolism [29]: Metabolite_Detected; Drug metabolism [30]: Metabolite_Detected; Drug metabolism [31]: Metabolite_Detected; Drug metabolism [32]: Metabolite_Notdetected; Drug metabolism [33]: Metabolite_Notdetected; Drug metabolism [34]: Metabolite_Notdetected; microsomal CLint [35]: 103 µL/min/mg; microsomal CLint [36]: 100 µL/min/mg; microsomal CLint [37]: 39 µL/min/mg; microsomal CLint [38]: 37 µL/min/mg; fraction unbound [39]: 0.03; fraction unbound [40]: 0.22; fraction unbound [41]: 0.17; fraction unbound [42]: 0.15; LBF [43]: 40%
